Experiment [1] addresses Tyrosine-protein kinase Lck (Homo sapiens, UniProt P06239). Briefly: DRUGMATRIX: Protein Tyrosine Kinase, LCK enzyme inhibition (substrate: Poly(Glu:Tyr)). It counts as cell-based, Insect cells. The following applies: insect cells; Not Active = under 50% inhibition at 10 µM.
In experiment [2] the target is T1, Neuropeptide Y receptor type 1 (Homo sapiens, UniProt P25929). Also: in other assays of this panel Not Active means under 50% inhibition at 10 µM.
T1 sequence (P25929 whole entry): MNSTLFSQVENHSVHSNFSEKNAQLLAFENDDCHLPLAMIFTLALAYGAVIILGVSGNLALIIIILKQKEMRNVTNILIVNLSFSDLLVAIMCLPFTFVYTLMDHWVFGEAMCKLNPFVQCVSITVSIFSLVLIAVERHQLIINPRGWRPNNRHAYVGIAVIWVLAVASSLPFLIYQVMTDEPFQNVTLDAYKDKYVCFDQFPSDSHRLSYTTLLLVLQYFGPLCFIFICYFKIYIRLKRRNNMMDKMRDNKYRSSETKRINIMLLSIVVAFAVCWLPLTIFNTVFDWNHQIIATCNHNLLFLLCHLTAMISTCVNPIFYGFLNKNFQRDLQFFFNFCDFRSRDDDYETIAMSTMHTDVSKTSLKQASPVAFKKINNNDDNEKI
The format is cell membranes, Membrane. Particulars: sk-n-mc.

Experiment [3] deals with T2, 5-hydroxytryptamine receptor 1A (Rattus norvegicus, UniProt P19327).
T2 sequence (P19327 whole entry): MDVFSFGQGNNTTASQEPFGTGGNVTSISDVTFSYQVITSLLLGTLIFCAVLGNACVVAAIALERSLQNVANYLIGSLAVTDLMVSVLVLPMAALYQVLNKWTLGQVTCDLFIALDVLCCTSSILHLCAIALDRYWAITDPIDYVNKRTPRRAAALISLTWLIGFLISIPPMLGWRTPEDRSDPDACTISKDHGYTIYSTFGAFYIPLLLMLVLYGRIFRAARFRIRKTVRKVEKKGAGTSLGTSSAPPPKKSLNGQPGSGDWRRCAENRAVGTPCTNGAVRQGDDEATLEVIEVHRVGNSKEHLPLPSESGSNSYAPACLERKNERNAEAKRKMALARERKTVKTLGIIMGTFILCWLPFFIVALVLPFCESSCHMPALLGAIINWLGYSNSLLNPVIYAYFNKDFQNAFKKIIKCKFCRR
The format is cell membranes, CHO-K1, Membrane. The following applies: for Ki: read-out: Ki.

Experiment [4] has as its target 5-hydroxytryptamine receptor 6 (Homo sapiens, UniProt P50406). The format is cell membranes, HeLa, Membrane. The following applies: for Ki: read-out: Ki. As to all read-outs here: in other assays of this panel Not Active means under 50% inhibition at 10 µM.
In a further experiment the target is T3, Adenosine receptor A1 (Homo sapiens, UniProt P30542).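 Also: radioligand binding assay at the adenosine A1 receptor, with DPCPX serving as the labelled ligand; in other assays of this panel Not Active means under 50% inhibition at 10 µM.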
T3 sequence (P30542 whole entry): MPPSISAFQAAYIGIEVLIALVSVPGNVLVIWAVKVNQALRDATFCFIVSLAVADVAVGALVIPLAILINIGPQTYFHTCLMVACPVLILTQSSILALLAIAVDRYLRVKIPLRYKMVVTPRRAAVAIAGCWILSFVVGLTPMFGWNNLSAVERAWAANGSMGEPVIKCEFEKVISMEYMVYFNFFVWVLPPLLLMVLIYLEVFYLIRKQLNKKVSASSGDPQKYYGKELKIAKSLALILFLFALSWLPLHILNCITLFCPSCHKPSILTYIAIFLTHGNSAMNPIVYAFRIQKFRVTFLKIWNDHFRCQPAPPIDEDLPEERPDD
It counts as cell membranes, CHO, Membrane.

Sequence of Tyrosine-protein kinase Lck (P06239 whole entry): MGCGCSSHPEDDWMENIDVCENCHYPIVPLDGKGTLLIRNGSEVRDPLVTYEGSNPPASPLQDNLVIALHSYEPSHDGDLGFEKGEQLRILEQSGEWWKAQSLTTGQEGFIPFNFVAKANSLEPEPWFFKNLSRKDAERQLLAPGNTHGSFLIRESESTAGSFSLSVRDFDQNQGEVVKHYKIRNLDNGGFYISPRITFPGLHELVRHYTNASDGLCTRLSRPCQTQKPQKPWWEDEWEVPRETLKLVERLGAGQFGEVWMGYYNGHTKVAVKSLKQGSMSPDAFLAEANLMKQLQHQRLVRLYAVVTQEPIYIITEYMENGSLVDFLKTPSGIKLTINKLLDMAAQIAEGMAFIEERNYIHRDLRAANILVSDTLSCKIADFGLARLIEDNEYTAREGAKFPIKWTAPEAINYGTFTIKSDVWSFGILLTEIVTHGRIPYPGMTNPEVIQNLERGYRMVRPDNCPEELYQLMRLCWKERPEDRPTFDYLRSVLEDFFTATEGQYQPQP
Sequence of 5-hydroxytryptamine receptor 6 (P50406 whole entry): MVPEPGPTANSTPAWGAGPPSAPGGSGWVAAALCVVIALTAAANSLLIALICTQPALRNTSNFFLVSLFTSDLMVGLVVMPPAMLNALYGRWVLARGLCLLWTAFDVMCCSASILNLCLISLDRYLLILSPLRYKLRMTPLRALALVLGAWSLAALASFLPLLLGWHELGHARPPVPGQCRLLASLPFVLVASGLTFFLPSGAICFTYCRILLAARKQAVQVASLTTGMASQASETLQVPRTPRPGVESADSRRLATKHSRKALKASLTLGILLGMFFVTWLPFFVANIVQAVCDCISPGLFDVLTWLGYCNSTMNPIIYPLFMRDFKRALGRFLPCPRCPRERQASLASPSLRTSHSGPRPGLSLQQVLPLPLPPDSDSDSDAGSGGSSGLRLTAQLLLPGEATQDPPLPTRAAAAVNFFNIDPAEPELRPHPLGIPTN

Take `CN1CCN(C(c2ccccc2)c2ccccc2)CC1` [CYCLIZINE]: the 50% inhibitory concentration (IC50) result (in experiment [1]; in experiment [2]; in experiment [3] (cho-k1); in experiment [4] (hela); against Adenosine receptor A1 (cho)) was “Not Active” each time.

On to `CN1C[C@@H]2C[C@H]1CN2c1cc2c(cc1F)c(=O)c(C(=O)O)cn2C1CC1` [DANOFLOXACIN], for which the IC50 result (in experiment [1]; in experiment [2]; in experiment [3] (cho-k1); in experiment [4] (hela); at Adenosine receptor A1 (cho)) was “Not Active” in each case.

For `COc1cccc2c1C(=O)c1c(O)c3c(c(O)c1C2=O)C[C@@](O)(C(C)=O)C[C@@H]3O[C@H]1C[C@H](N)[C@H](O)[C@H](C)O1` [DAUNORUBICIN], the IC50 entry (in experiment [1]; in experiment [2]; in experiment [3] (cho-k1); in experiment [4] (hela); against Adenosine receptor A1 (cho)) was “Not Active” each time.

In the case of `O=C(O)c1cc(-c2ccc(F)cc2F)ccc1O` [DIFLUNISAL], the IC50 entry (in experiment [1]; in experiment [3] (cho-k1); in experiment [4] (hela); on Adenosine receptor A1 (cho)) was “Not Active” in each case. In experiment [2], the inhibition constant (Ki) entry is “Not Active”.

For `C[S+](C)[O-]` [DIMETHYL SULFOXIDE], the IC50 result (in experiment [1]; in experiment [2]; in experiment [3] (cho-k1); in experiment [4] (hela); on Adenosine receptor A1 (cho)) was “Not Active” throughout.

With `CC1=NN(c2ccccc2)C(=O)C1` [EDARAVONE], the IC50 entry (in experiment [1]; in experiment [2]; in experiment [3] (cho-k1); in experiment [4] (hela); against Adenosine receptor A1 (cho)) was “Not Active” throughout.

In the case of `CC(C)C[C@H]1C(=O)N2CCC[C@H]2[C@]2(O)O[C@](NC(=O)[C@@H]3C=C4c5cccc6[nH]cc(c56)C[C@H]4N(C)C3)(C(C)C)C(=O)N12` [ERGOCRYPTINE], the IC50 result in experiment [1] was “Not Active”; in experiment [2], “Not Active”; in experiment [3] (read-out: IC50) it was 2.63 nM; in experiment [4] (read-out: IC50), 16 nM; on Adenosine receptor A1 (cho), “Not Active”. The inhibition constant (Ki) in experiment [3] came to 1.5 nM; in experiment [4] it was 7.56 nM.

Consider `C[C@]12CC[C@@H]3c4ccc(O)cc4CC[C@H]3[C@@H]1C[C@@H](O)[C@@H]2O` [ESTRIOL], for which the IC50 result (in experiment [1]; in experiment [2]; in experiment [3] (cho-k1); in experiment [4] (hela); at Adenosine receptor A1 (cho)) was “Not Active” in each case.

For `C#C[C@]1(O)CC[C@H]2[C@@H]3CCC4=CC(=O)CC[C@]4(C)[C@H]3CC[C@@]21C` [ETHISTERONE], the 50% inhibitory concentration (IC50) entry (in experiment [1]; in experiment [2]; in experiment [3] (cho-k1); in experiment [4] (hela); at Adenosine receptor A1 (cho)) was “Not Active” each time.

For the compound `CC(O)(P(=O)(O)O)P(=O)(O)O` [ETIDRONIC ACID], the IC50 entry (in experiment [1]; in experiment [2]; in experiment [3] (cho-k1); in experiment [4] (hela); on Adenosine receptor A1 (cho)) was “Not Active” in each case.

Regarding `CC(C)(C(=O)O)c1ccc(C(O)CCCN2CCC(C(O)(c3ccccc3)c3ccccc3)CC2)cc1` (stereo not given) [FEXOFENADINE], the IC50 entry (in experiment [1]; in experiment [2]; in experiment [3] (cho-k1); in experiment [4] (hela); against Adenosine receptor A1 (cho)) was “Not Active” throughout.

`CN1CCN(c2c(F)cc3c(=O)c(C(=O)O)cn(CCF)c3c2F)CC1` [FLEROXACIN]: the 50% inhibitory concentration (IC50) result (in experiment [1]; in experiment [2]; in experiment [3] (cho-k1); in experiment [4] (hela); against Adenosine receptor A1 (cho)) was “Not Active” in each case.

For `O=c1[nH]c(=O)n([C@H]2C[C@H](O)[C@@H](CO)O2)cc1F` [FLOXURIDINE], the concentration for half-maximal inhibition (IC50) entry (in experiment [1]; in experiment [2]; in experiment [3] (cho-k1); in experiment [4] (hela); on Adenosine receptor A1 (cho)) was “Not Active” each time.

`COC(=O)Nc1nc2cc(C(=O)c3ccc(F)cc3)ccc2[nH]1` [FLUBENDAZOLE]: the IC50 result (in experiment [1]; in experiment [2]; in experiment [3] (cho-k1); in experiment [4] (hela); against Adenosine receptor A1 (cho)) was “Not Active” in each case.

For the compound `CC(=O)OCC(=O)[C@@]1(O)CC[C@H]2[C@@H]3CCC4=CC(=O)CC[C@]4(C)[C@@]3(F)[C@@H](O)C[C@@]21C` [FLUDROCORTISONE ACETATE], the IC50 result (in experiment [1]; in experiment [2]; in experiment [3] (cho-k1); in experiment [4] (hela); at Adenosine receptor A1 (cho)) was “Not Active” throughout.

On to `CCOC(=O)c1ncn2c1CN(C)C(=O)c1cc(F)ccc1-2` [FLUMAZENIL], for which the IC50 entry (in experiment [1]; in experiment [2]; in experiment [3] (cho-k1); in experiment [4] (hela); against Adenosine receptor A1 (cho)) was “Not Active” each time.

For the compound `CC(=O)OCC(=O)[C@@]12OC(C)(C)O[C@@H]1C[C@H]1[C@@H]3C[C@H](F)C4=CC(=O)C=C[C@]4(C)[C@@]3(F)[C@@H](O)C[C@@]12C` [FLUOCINONIDE], the IC50 result (in experiment [1]; in experiment [2]; in experiment [3] (cho-k1); in experiment [4] (hela); on Adenosine receptor A1 (cho)) was “Not Active” each time.

Regarding `O=C(O)P(=O)(O)O` [FOSCARNET], the IC50 entry (in experiment [1]; in experiment [2]; in experiment [3] (cho-k1); in experiment [4] (hela); against Adenosine receptor A1 (cho)) was “Not Active” in each case.

For `Cc1ccc(C)c(OCCCC(C)(C)C(=O)O)c1` [GEMFIBROZIL], the half-maximal inhibitory concentration (IC50) result (in experiment [1]; in experiment [2]; in experiment [3] (cho-k1); in experiment [4] (hela); on Adenosine receptor A1 (cho)) was “Not Active” each time.

As for `O=c1c(-c2ccc(O)cc2)coc2cc(O)cc(O)c12` [GENISTEIN], the half-inhibitory concentration (IC50) entry in experiment [1] was “Not Active”; in experiment [2] it was “Not Active”; in experiment [3] (cho-k1) it was “Not Active”; in experiment [4] (hela) it was “Not Active”; on Adenosine receptor A1 (read-out: IC50) it was 19.9 µM. The inhibition constant (Ki) on Adenosine receptor A1 (read-out: Ki) was 11.6 µM.

With `CCC1=C(C)CN(C(=O)NCCc2ccc(S(=O)(=O)NC(=O)N[C@H]3CC[C@H](C)CC3)cc2)C1=O` [GLIMEPIRIDE], the IC50 entry (in experiment [1]; in experiment [2]; in experiment [3] (cho-k1); in experiment [4] (hela); against Adenosine receptor A1 (cho)) was “Not Active” each time.

For `Nc1cc(-c2ccncc2)c[nH]c1=O` [INAMRINONE], the concentration for half-maximal inhibition (IC50) entry (in experiment [1]; in experiment [2]; in experiment [3] (cho-k1); in experiment [4] (hela); against Adenosine receptor A1 (cho)) was “Not Active” in each case.

For the compound `CCCCC1=NC2(CCCC2)C(=O)N1Cc1ccc(-c2ccccc2-c2nnn[nH]2)cc1` [IRBESARTAN], the IC50 result (in experiment [1]; in experiment [2]; in experiment [3] (cho-k1); in experiment [4] (hela); against Adenosine receptor A1 (cho)) was “Not Active” in each case.

Turning to `CN1CCC(=C2c3ccccc3CC(=O)c3sccc32)CC1` [KETOTIFEN], the IC50 entry is “Not Active” in experiment [1]; “Not Active” in experiment [2]; 2540 nM in experiment [3] (read-out: IC50); 1140 nM in experiment [4] (read-out: IC50); “Not Active” against Adenosine receptor A1 (cho). Besides, the Ki amounted to 1450 nM in experiment [3] and 530 nM in experiment [4].

Take `N[C@@H](Cn1ccc(=O)c(O)c1)C(=O)O` [L-MIMOSINE]: the IC50 result (in experiment [1]; in experiment [2]; in experiment [3] (cho-k1); in experiment [4] (hela); against Adenosine receptor A1 (cho)) was “Not Active” in each case.

On to `C[N+](C)(C)C[C@H](O)CC(=O)[O-]` [LEVOCARNITINE], for which the concentration for half-maximal inhibition (IC50) result (in experiment [1]; in experiment [2]; in experiment [3] (cho-k1); in experiment [4] (hela); against Adenosine receptor A1 (cho)) was “Not Active” throughout.

With `C[C@H]1COc2c(N3CCN(C)CC3)c(F)cc3c(=O)c(C(=O)O)cn1c23.C[C@H]1COc2c(N3CCN(C)CC3)c(F)cc3c(=O)c(C(=O)O)cn1c23.O` [LEVOFLOXACIN], the IC50 entry (in experiment [1]; in experiment [2]; in experiment [3] (cho-k1); in experiment [4] (hela); at Adenosine receptor A1 (cho)) was “Not Active” in each case.
